Results on nine compounds are retold here after patent publication US6124263A, “Treatment of tumors by administration of growth hormone releasing compounds and their antagonists” (Asta Medica AG, priority 1998, dated 2000).

Assay [1] has as its system Human lung carcinoma cells (CaLu1). Format: cell-based. Particulars: for EC50: 3 h; for effect on basal and EGF-stimulated 3H-thymidine incorporation: 10-6 mol/l compound, 20 h + 4 h incubation, FIG. 4. Here is the method: Human lung carcinoma cells (CaLu1), T47D and MDA-MB231, respectively, human oestrogen dependent and oestrogen independent breast cancer cell lines were purchased from the ATCC (Rockville, Md., USA). Cells were routinely cultured in […] flasks at 37° C., 5% CO2 and 95% humidified atmosphere in RPMI supplemented with 10% FCS, penicillin-streptomycin and fungizone. When a subconfluent state was reached, cells were detached from the flasks with trypsin/EDTA. DNA synthesis was evaluated by ^3 H-thymidine incorporation as described in G. Muccioli et al., Journal of Endocrinology, 153, 365-371, 1997. […] After incubation for 20 hours, ^3 H-thymidine was added and incubation was continued for a further 4 hours. The reaction was halted and the cells were harvested onto glass-fiber filter strips. Incorporation of ^3 H-thymidine was measured in a scintillation counter.
(In general: Uptake of a labelled nucleoside into DNA is a usual measure of proliferation.)

The next assay has as its system GHRP receptors. Kind of assay: GHRP receptor assay: 125I-Tyr-Ala-Hexarelin binding to tumor membranes. The arrangement: species or system human. Particulars: for competition with 125I-Tyr-Ala-Hexarelin for the tumoral binding sites (displacement of radiotracer binding): membranes of a non-endocrine carcinoma of lung origin, FIG. 3. The protocol: Surgical tumor specimens were collected from the Department of Biomedical Sciences and Human Oncology (Division of Pathology) of the University of Turin. A tumor fragment adjacent to that used for histopathological diagnosis was immediately frozen at -80° C. and stored for 2 to 60 months until further processed for binding studies. Samples of 13 invasive breast carcinoma (10 ductal and 3 lobular), 14 non-endocrine lung carcinomas (5 squamous cell and 9 adenocarcinomas), 11 endocrine tumors of the lung, 9 endocrine tumors of the pancreas and 12 thyroid carcinomas (7 of follicular origin and 5 of medullary origin) were used. Non-neoplastic normal tissues of the corresponding organs were also analysed in parallel with the individual tumors.
GHRP receptors were measured on tumor membranes as described in G. Muccioli et al., Journal of Endocrinology, 157, 99-106, 1998, using ^125 I-Tyr-Ala-Hexarelin as a ligand. Specific binding was calculated as the difference between binding in the absence and in the presence of excess unlabelled Tyr-Ala-Hexarelin and expressed as a percentage of the radioactivity added. Saturation and competition binding studies were analyzed with the GraphPAD Prism 2 program (GraphPAD Software, San Diego, Calif., USA).

Assay [2] relates to human breast cancer T47D cells. Briefly: Cell growth study (cell count), T47D cells. As to conditions: FIG. 7a. The class given is cell-based. Here is the method: (§1) Human lung carcinoma cells (CaLu1), T47D and MDA-MB231, respectively, human oestrogen dependent and oestrogen independent breast cancer cell lines were purchased from the ATCC (Rockville, Md., USA). Cells were routinely cultured in […] flasks at 37° C., 5% CO2 and 95% humidified atmosphere in RPMI supplemented with 10% FCS, penicillin-streptomycin and fungizone. When a subconfluent state was reached, cells were detached from the flasks with trypsin/EDTA. Cell growth studies were carried out as described in P.Cassoni et al., Virchows Archiv, 425, 467-472, 1994. Cells were seeded in triplicate in 24-multiwell plates at a density of 5,000-10,000 cells/ml. Twenty-four hours after plating the medium was changed. Hexarelin or Ala-Hexarelin were added where requested at concentrations ranging from 10^-8 to 10^-6 mol/l. The medium was changed every 48 hours. Cells were counted at 48 and 72 or 96 hours of treatment in a double blind analysis by two independent investigators using a haemocytometer.

The test system of assay [3] is Human lung carcinoma cells (CaLu1). Briefly: Cell growth study (cell count), human lung carcinoma cells. The class given is cell-based. Particulars: FIG. 6. The protocol:
as §1

For assay [4], the system named is human breast cancer MDA-MB231 cells. Briefly: Cell growth study (cell count), MDA-MB231 cells. The class given is cell-based. Particulars: FIG. 8a. The protocol:
as §1

The mark [5] stands for this setting: 10^-7 mol/l and 10^-6 mol/l, any time point tested.

Numbered stars: 1 amine (or outer) side, 2 acyl side, 3 side chain; on linkers, the order of the positions; unused ones are H or OH. Square brackets hold non-standard residues; d marks the D form. Peptide text beside a SMILES is read from it. Haic = O=C1[C@@H](N[*:1])CCc2cccc3c2N1[C@H](C(=O)[*:2])C3; dTrp(2-Me) = Cc1[nH]c2ccccc2c1C[C@@H](N)C(=O)O

As usually defined, the EC50 is the concentration that produces a half-maximal response. `NCCCC[C@H](NC(=O)[C@@H](Cc1ccccc1)NC(=O)[C@H](Cc1c[nH]c2ccccc12)NC(=O)[C@@H](CCCCN)NC(=O)[C@@H](Cc1c[nH]c2ccccc12)NC(=O)[C@@H](N)Cc1c[nH]cn1)C(N)=O` [(D-Lys)3 -GHRP6, His-D-Trp-D-Lys-Trp-D-Phe-Lys-NH2] (H-H[dW][dK]W[dF]K-NH2) displayed a concentration giving a half-maximal response (EC50) in assay [1] of 90 nM.
As to `Cc1[nH]c2ccccc2c1C[C@@H](NC(=O)[C@H](Cc1c[nH]cn1)NC(=O)[C@H](C)N)C(=O)N[C@@H](C)C(=O)N[C@@H](Cc1c[nH]c2ccccc12)C(=O)N[C@H](Cc1ccccc1)C(=O)N[C@@H](CCCCN)C(N)=O` [Ala-Hexarelin, Ala-His-D-Mrp-Ala-Trp-D-Phe-Lys-NH2] (H-AH[dTrp(2-Me)]AW[dF]K-NH2), in assay [1], the EC50 turned out to be 100 nM.
Still for that read-out and setting: the figure for `Cc1[nH]c2ccccc2c1C[C@@H](NC(=O)[C@@H]1Cc2cccc3c2N1C(=O)[C@@H](N)CC3)C(=O)N[C@H](CCCCN)C(=O)N[C@@H](Cc1c[nH]c2ccccc12)C(=O)N[C@H](Cc1ccccc1)C(=O)N[C@@H](CCCCN)C(N)=O` [EP80317, HAIC-D-Mrp-D-Lys-Trp-D-Phe-Lys-NH2] (Haic-[dTrp(2-Me)][dK]W[dF]K-NH2) is 56 nM.
`Cc1[nH]c2ccccc2c1C[C@@H](NC(=O)[C@@H](N)Cc1cnc[nH]1)C(=O)N[C@@H](C)C(=O)N[C@@H](Cc1c[nH]c2ccccc12)C(=O)N[C@H](Cc1ccccc1)C(=O)N[C@@H](CCCCN)C(N)=O` [Hexarelin, His-D-Mrp-Ala-Trp-D-Phe-Lys-NH2] (H-H[dTrp(2-Me)]AW[dF]K-NH2): the “competition with 125I-Tyr-Ala-Hexarelin for the tumoral binding sites (displacement of radiotracer binding)” value (“competition with 125I-Tyr-Ala-Hexarelin” below) with GHRP receptors was “displaced in a dose-dependent fashion”. For the same compound, the “effect on basal and EGF-stimulated 3H-thymidine incorporation” value in assay [1] (EGF 1 ng/ml) is “able to inhibit both basal and the EGF-stimulated”. The “inhibition of the proliferative effect of EGF with increasing concentrations” value in assay [1] (10^-8 to 10^-6 mol/l, EGF 1 ng/ml, FIG. 5) is recorded as “inhibited in a dose-dependent fashion”. In assay [1], this compound gave an EC50 of 80 nM. For the same compound, the “decrease in cell number compared with control at higher concentrations” value in assay [2] (setting [5]), in assay [3] (setting [5]) and in assay [4] (setting [5]) was “further increased” throughout. In addition, the “decrease in cell number compared with control” value in assay [2] (10^-8 mol/l, after 96 hours) is listed as -54%; in assay [3] (10^-8 mol/l, after 96 hours), -47%; in assay [4] (10^-8 mol/l, after 72 hours), -33%.
For the compound `CC(C)(N)C(=O)N[C@H](COCc1ccccc1)C(=O)N1CCC2(CC1)CN(S(C)(=O)=O)c1ccccc12` [MK0677, reference compound], in the assay on GHRP receptors, the “competition with 125I-Tyr-Ala-Hexarelin” value is “negligible displacement”. In assay [1] (EGF 1 ng/ml), the “effect on basal and EGF-stimulated 3H-thymidine incorporation” value is listed as “slight inhibition”.
In the case of `Cc1[nH]c2ccccc2c1C[C@@H](NC(=O)[C@H](Cc1c[nH]cn1)NC(=O)[C@H](C)NC(=O)[C@@H](N)Cc1ccc(O)cc1)C(=O)N[C@@H](C)C(=O)N[C@@H](Cc1c[nH]c2ccccc12)C(=O)N[C@H](Cc1ccccc1)C(=O)N[C@@H](CCCCN)C(N)=O` [Tyr-Ala-Hexarelin, Tyr-Ala-His-D-Mrp-Ala-Trp-D-Phe-Lys-NH2] (H-YAH[dTrp(2-Me)]AW[dF]K-NH2), in assay [1], a half-maximal response (EC50) required 65 nM.
Turning to `C[C@H](N)C(=O)NCC(=O)N[C@H]1CSSC[C@@H](C(=O)O)NC(=O)[C@H](CO)NC(=O)[C@H]([C@@H](C)O)NC(=O)[C@H](Cc2ccccc2)NC(=O)[C@H]([C@@H](C)O)NC(=O)[C@H](CCCCN)NC(=O)[C@H](Cc2c[nH]c3ccccc23)NC(=O)[C@H](Cc2ccccc2)NC(=O)[C@H](Cc2ccccc2)NC(=O)[C@H](CC(N)=O)NC(=O)[C@H](CCCCN)NC1=O` [somatostatin], the “competition with 125I-Tyr-Ala-Hexarelin” value in the assay on GHRP receptors is “no competition”.
“GHRH: Human GHRH (GHRH 1-44) purchased from Bachem”: the “competition with 125I-Tyr-Ala-Hexarelin” value in the assay on GHRP receptors is “no competition”.
Take “^125 I-Tyr-Ala-His-D-Mrp-Ala-Trp-D-Phe-Lys-NH2 [^125 I-Tyr-Ala-Hexarelin]”: the “binding of 125I-Tyr-Ala-Hexarelin to tumor membranes as a function of radioligand concentration (saturation, Scatchard)” value in the assay with GHRP receptors (non-endocrine carcinoma of lung origin, FIG. 2) is “saturable specific binding”.
